The values below come from US20250145566A1, “PHENETHYLAMINE DERIVATIVES, COMPOSITIONS, AND METHODS OF USE” (Cybin IRL Limited, priority 2022, published 2025).

Series [1] has as its target T1, dopamine transporter (h) (Homo sapiens, UniProt Q01959).
T1 construct: expressed in transfected cells; host or cells: CHO cells
Description: dopamine transporter (h) binding, [3H]BTCP. The following applies: at 10 μM; table calls these values “No Binding”.

Series [2] has as its target T2, 5-HT2B (h) (Homo sapiens, UniProt P41595).
T2 construct: expressed in transfected cells; host or cells: CHO cells
Description: 5-HT2B (h) agonist radioligand [125I](±)DOI binding. The following applies: at 10 μM. Here is the method:
(§1) Samples were then analyzed as described above.

Series [3] addresses T3, 5-HT2C (h) (Homo sapiens, UniProt P28335).
T3 construct: expressed in transfected cells; host or cells: HEK-293 cells
T3 sequence (P28335 33-458): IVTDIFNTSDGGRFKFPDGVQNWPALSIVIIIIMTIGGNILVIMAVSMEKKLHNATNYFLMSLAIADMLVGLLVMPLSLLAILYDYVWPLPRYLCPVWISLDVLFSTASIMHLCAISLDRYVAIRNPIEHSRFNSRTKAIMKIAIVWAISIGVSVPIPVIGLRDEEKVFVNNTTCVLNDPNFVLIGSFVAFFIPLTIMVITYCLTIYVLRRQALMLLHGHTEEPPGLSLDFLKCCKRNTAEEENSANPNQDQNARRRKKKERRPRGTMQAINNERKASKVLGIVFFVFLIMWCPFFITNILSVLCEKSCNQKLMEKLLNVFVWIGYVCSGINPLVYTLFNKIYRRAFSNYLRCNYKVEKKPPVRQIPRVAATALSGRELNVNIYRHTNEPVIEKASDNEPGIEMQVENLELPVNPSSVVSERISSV
Briefly: 5-HT2C (h) agonist effect, IP1 HTRF functional assay. It is filed as cell-based. As to conditions: for agonist efficacy at 5-HT2C, in words: EMAX relative to 5-HT.

Series [4] addresses T4, 5-HT transporter (h) (Homo sapiens, UniProt P31645).
T4 construct: expressed in transfected cells; host or cells: CHO cells
Description: 5-HT transporter (h) binding, [3H]imipramine. As to conditions: for selectivity for binding SERT over DAT and NET, in words: affinity screen at 10 μM.

In series [5] the target is T3, 5-HT2C (h). Briefly: 5-HT2C (h) agonist radioligand [125I](±)DOI binding. The following applies: at 10 μM. Here is the method:
as §1

Series [6] deals with T5, 5-HT2A (h) (Homo sapiens, UniProt P28223).
T5 construct: expressed in transfected cells; host or cells: HEK-293 cells
Briefly: 5-HT2A (h) agonist effect, IP1 HTRF functional assay. Type of series: cell-based. The following applies: for agonist efficacy at 5-HT2A, in words: EMAX relative to 5-HT.

The target in series [7] is T6, MAO-A (Homo sapiens, UniProt P21397).
T6 construct: purchased XenoTech (first series); Corning (second series) Corning 456283
T6 sequence (P21397 1-527): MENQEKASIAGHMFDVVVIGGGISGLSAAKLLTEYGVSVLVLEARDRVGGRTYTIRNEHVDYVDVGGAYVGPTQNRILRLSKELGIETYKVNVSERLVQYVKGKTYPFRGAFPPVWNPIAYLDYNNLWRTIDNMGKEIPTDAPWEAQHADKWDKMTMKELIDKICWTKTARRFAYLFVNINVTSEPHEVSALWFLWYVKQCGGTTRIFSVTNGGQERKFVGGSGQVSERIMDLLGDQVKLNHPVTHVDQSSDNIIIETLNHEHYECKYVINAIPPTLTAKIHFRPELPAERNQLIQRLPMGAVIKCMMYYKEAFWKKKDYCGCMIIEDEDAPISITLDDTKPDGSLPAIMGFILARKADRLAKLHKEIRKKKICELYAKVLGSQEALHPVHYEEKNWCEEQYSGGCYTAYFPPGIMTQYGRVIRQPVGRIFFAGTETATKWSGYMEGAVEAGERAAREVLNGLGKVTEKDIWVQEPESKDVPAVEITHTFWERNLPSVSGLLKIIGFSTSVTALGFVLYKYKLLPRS
Description: Recombinant human MAO-A in vitro metabolism. It is filed as in vitro ADME. The following applies: for half-life at 1 µM: human, recombinant human MAO-A. Here is the method: Recombinant human MAO-A. hrMAO-A and MAO control were purchased from XenoTech. The reaction mixture was prepared as described in Table 11. The test compound was added into the reaction mixture at a final concentration of 1 μM. The positive control kynuramine (25 μM) was run simultaneously with the test compound in a separate reaction. The reaction mixture (without test compounds or kynuramine) was equilibrated in a shaking water bath at 37° C. for 5 minutes. The reaction was initiated by the addition of the test compound or kynuramine, and the mixture was incubated in a shaking water bath at 37° C. Aliquots (150 μL) of the test compound reaction mixture were withdrawn at 0, 5, 10, 20, 30, 60, and for some assays at 120 minutes. Aliquots (150 μL) of the positive control reaction mixture were withdrawn at 0 and 30 minutes. Test compound and kynuramine samples were immediately combined with 150 μL of ice-cold 100% acetonitrile containing 0.1% formic acid and internal standard (0.2 μM metoprolol) to terminate the reaction. The samples were then mixed and centrifuged to precipitate proteins. All samples were assayed by LC-MS/MS. The peak area response ratio (PARR) of analyte to internal standard at each time point was compared to the PARR at time 0 to determine the percent remaining at each time point. Half-lives were calculated using GraphPad software, fitting to a single-phase exponential decay equation.
In a different series of reactions using human MAO-A and MAO-B, a 10 mM stock solution of the test compound was prepared in DMSO. From this stock solution, an intermediate stock solution of 1 mM was prepared by diluting the compound in DMSO and from this intermediate stock solution, a working solution of 0.30 mM was prepared by diluting the compound in ACN:Water (50:50) as cocktail of 2 compounds (30 μL each compound in 40 μL diluent for 100 μL). Following this, a master mix of 0.1 M potassium phosphate buffer and test compound mixture i.e., the non-deuterated and the deuterated analog, were prepared to achieve final drug concentration of 1 μM (0.2% DMSO) for the required number of reactions. The aforementioned master mix was pre-incubated at 37° C. for 5 min. To this master mix, MAO-A (final protein conc. 0.1 mg/mL; Corning Cat #456283; Lot #1173003) or MAO-B (final protein conc. 0.1 mg/mL; Corning Cat #456284; Lot #0318001) was added to initiate the reaction. The samples were then incubated at 37° C. for the desired time points. At each time point (0, 5, 15, 30, 45, 60), 40 μL of the samples were withdrawn and reactions were stopped using 200 μL chilled ACN containing 0.1% formic acid and internal standard Carbamazepine (10 ng/mL). The samples were centrifuged, and the supernatant was analyzed by LC-MS/MS. The percent compound remaining at each time point was calculated with respect to that of the 0 min sample. The data were then analyzed to calculate half-life and intrinsic clearance (CLint). Blank samples were prepared using DMSO (without the test compound).

In series [8] the target is T7, norepinephrine transporter (h) (Homo sapiens, UniProt P23975).
T7 construct: expressed in transfected cells; host or cells: CHO cells
Briefly: norepinephrine transporter (h) binding, [3H]nisoxetine. As to conditions: at 10 μM; table calls these values “No Binding”.

Series [9] has as its target T5, 5-HT2A (h). Description: 5-HT2A (h) agonist radioligand [125I](±)DOI binding. The following applies: at 10 μM.
Where [10] appears, read: human recombinant MAO-A, test compound 1 μM, read-out: MAO-A t1/2.

pEC50: −log10 of the molar value. “Also recorded” adds a separate entry of the source. Where two headings read alike, the source gives them in different places.

T5 sequence (P28223 whole entry): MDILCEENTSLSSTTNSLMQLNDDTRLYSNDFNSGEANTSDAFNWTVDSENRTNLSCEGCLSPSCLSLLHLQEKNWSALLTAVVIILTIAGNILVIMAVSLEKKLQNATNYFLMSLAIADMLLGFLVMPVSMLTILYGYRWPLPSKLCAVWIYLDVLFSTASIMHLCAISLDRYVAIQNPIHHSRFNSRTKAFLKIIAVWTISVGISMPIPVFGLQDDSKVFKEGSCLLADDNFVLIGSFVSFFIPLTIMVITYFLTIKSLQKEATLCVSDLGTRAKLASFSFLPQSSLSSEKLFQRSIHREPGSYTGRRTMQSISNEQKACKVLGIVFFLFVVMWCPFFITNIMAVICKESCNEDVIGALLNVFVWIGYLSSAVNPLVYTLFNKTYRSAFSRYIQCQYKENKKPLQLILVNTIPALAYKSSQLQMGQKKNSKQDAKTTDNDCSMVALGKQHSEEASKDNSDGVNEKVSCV
T4 sequence (P31645 whole entry): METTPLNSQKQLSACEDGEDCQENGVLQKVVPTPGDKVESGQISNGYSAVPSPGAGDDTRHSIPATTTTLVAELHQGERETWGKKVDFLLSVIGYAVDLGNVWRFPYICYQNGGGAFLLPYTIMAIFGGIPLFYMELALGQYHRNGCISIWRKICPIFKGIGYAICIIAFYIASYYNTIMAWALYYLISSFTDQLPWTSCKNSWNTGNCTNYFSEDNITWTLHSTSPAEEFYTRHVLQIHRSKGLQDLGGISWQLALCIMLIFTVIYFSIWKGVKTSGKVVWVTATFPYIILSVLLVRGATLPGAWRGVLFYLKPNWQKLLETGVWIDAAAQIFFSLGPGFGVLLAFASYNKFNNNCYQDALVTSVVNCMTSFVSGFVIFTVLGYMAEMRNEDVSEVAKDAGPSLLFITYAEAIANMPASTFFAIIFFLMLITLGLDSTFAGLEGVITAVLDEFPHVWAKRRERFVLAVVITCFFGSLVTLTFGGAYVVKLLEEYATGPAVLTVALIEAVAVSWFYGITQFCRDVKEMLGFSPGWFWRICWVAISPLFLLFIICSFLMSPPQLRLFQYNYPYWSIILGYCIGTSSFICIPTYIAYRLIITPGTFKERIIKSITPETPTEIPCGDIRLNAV
T2 sequence (P41595 whole entry): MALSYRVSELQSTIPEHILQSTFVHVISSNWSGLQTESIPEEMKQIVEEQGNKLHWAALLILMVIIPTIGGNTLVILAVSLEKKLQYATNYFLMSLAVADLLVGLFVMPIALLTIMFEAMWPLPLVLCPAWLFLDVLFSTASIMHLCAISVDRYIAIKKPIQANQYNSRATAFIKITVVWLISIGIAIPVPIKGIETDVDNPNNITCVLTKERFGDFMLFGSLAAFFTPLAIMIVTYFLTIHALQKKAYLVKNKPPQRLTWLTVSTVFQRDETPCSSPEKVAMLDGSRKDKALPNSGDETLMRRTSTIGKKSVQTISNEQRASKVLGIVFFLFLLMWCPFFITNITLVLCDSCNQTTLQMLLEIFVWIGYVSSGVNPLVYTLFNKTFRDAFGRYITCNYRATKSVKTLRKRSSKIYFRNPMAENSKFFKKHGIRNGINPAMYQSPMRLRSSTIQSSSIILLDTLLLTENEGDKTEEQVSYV
T1 sequence (Q01959 whole entry): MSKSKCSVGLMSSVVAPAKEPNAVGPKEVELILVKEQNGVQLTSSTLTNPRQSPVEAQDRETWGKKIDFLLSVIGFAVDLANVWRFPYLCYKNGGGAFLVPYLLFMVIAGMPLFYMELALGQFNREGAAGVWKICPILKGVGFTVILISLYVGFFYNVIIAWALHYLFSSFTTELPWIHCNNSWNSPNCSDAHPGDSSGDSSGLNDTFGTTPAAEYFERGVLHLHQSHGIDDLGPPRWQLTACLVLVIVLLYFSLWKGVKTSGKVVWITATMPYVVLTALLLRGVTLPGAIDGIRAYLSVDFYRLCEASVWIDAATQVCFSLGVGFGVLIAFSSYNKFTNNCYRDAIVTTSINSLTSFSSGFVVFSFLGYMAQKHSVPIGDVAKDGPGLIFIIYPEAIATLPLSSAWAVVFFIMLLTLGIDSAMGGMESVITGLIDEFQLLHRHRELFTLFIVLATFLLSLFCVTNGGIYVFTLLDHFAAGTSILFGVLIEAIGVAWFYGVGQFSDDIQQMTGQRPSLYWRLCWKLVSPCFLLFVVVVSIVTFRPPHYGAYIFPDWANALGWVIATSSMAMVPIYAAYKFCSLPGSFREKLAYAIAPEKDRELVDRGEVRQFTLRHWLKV
T7 sequence (P23975 whole entry): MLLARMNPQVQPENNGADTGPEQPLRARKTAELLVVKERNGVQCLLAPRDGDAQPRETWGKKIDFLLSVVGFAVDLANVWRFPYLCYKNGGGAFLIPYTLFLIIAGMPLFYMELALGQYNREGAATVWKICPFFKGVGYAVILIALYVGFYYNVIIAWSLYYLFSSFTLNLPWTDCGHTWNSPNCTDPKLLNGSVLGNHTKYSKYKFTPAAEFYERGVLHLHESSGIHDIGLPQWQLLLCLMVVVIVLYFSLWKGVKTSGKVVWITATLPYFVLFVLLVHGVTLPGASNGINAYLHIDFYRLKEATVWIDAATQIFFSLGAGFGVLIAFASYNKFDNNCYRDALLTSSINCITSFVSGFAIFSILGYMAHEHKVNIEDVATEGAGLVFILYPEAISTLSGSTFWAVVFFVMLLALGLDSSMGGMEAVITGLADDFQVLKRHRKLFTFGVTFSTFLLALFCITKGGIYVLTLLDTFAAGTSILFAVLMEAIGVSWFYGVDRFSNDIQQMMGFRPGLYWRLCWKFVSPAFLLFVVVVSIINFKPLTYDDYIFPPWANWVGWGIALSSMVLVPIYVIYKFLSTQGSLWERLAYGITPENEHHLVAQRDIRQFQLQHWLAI

In the case of `NCCc1ccc2c(c1)OCS2` [II-14, 2-(benzo[d][1,3]oxathiol-6-yl)ethan-1-amine], the “Binding DAT (antagonist radioligand), % competition” value in [1] is on record as 26% competition. In addition, the “Binding 5-HT2B (agonist radioligand), % competition” value in series [2] is 100.3% competition. The pEC50 in [3] is over 6.12; in series [6] it was 5.52. In series [3] (at 3 μM, relative to 5-HT, read-out: Function 5-HT2C EMAX), the Emax at 3 µM was 107%. In addition, the “Function 5-HT2C (Gq-IP1, efficacy relative to 5-HT), agonist type” value in [3] (tested at 1, 3, 10, 100 μM) was “Full agonist -”. Besides, in [3] (tested at 1, 3, 10, 100 μM), the “agonist efficacy at 5-HT2C, in words” value was “nearly full or full agonist; also recorded: full agonists”. Further, in [4], the “selectivity for binding SERT over DAT and NET, in words” value is “substantial selectivity for binding SERT over DAT and NET”. Further, in series [4] (at 10 μM), the “Binding SERT (antagonist radioligand), % competition” value was 54.7% competition. The “Binding 5-HT2C (agonist radioligand), % competition” value in [5] is given as 94.4% competition. Further, the Emax at 100 µM in series [6] (at 100 μM, relative to 5-HT, read-out: Function 5-HT2A EMAX) was 87.3%. The “Function 5-HT2A (IP-1, efficacy relative to 5-HT), agonist type” value in series [6] (tested at 1, 3, 10, 100 μM) is recorded as “Nearly full agonist -”. Further, the “agonist efficacy at 5-HT2A, in words” value in series [6] (tested at 1, 3, 10, 100 μM) is on record as “nearly full or full agonist; also recorded: full agonists”. Further, the half-life at 1 µM was at most 8 min in [7] (1 μM test compound, read-out: half-life, MAO-A metabolism) and 4.09 min in [7] (setting [10]). Further, the “Binding NET (antagonist radioligand), % competition” value in series [8] is 40.5% competition. Also, in series [9], the “Binding 5-HT2A (agonist radioligand), % competition” value amounted to 93.9% competition.
Turning to `CC(N)Cc1ccc2c(c1)OCS2` (stereo not shown) [II-16, 1-(benzo[d][1,3]oxathiol-6-yl)propan-2-amine], the “agonist efficacy at 5-HT2C, in words” value in series [3] (tested at 1, 3, 10, 100 μM) is “nearly full or full agonist; also recorded: full agonists”. Moreover, in series [4], the “selectivity for binding SERT over DAT and NET, in words” value was “substantial selectivity for binding SERT over DAT and NET”. Further, the “agonist efficacy at 5-HT2A, in words” value in [6] (tested at 1, 3, 10, 100 μM) was “nearly full or full agonist; also recorded: full agonists”. The half-life at 1 µM in [7] (setting [10]) is over 120 min. Further, the “stability in the presence of MAO-A” value in series [7] (result in words) is reported as “stable”.
